Assay results taken from patent publication US20110281951A1, “Compositions and methods for treating amyloidosis” (priority 1999, published 2011).
Each block holds one compound with its values, some of them ahead of it.

Columns and labels:
Format in all cases: biochemical
Aβ(1-40) = molecular target: T1, Aβ(1-40) (Homo sapiens, UniProt P05067); test: Circular dichroism analysis, pre-incubation assay, β-sheet at 218 nm; conditions: CD 218 nm, 0.02M Tris pH 7.4
T1 construct: Prepare a fresh 40 μm solution of Aβ(1-40) in 0.02M Tris, pH 7.4; made in house; host or cells: chemical synthesis (FMOC), HPLC purified
T1 sequence (P05067 672-711 limits assumed): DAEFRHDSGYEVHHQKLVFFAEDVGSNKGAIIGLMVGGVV
Experimental: The assay is conducted as follows:
Instrument: JASCO J-715 Spectropolarimeter.
Cell/cuvette: Hellma quartz (QS) with 1.0 mm pathlength Room temperature. Wavelength interval: 250 nm-190 nm.
Band width: 1.0 nm Response time: 1 sec Scanning speed: 20 nm/min Number of accumulations/spectrum: 5
1. Prepare a fresh 40 μm solution of Aβ(1-40) in 0.02M Tris, pH 7.4.
2. Prepare a 1 mM solution of test compounds in 0.02M Tris, pH 7.4.
3. Combine equal volumes of the Aβ(1-40) and test compound solutions.
4. Incubate the mixtures for 19 h.
5. Take the CD spectrum using the parameters above.
6. Return the mixtures to the incubator and incubate to 43 h.
7. Take the CD spectrum using the parameters above. • Inhibition of Aβ40 assembly/aggregation is determined by comparing the amount of b-sheet structure) appearing at lambda=218 nm) obtained in control and in treated sample at each timepoint.

IAPP = molecular target: T2, IAPP (Homo sapiens, UniProt P10997); test: CD analysis of IAPP fibril formation (Example 4); design: add 10 μL of 10 mg/mL IAPP stock solution (final 100 ng peptide)
T2 sequence (P10997 34-70 limits assumed): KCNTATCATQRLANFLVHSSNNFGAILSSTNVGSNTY

Aβ42 = molecular target: T3, Aβ42 (Homo sapiens, UniProt P05067); test: Solubility assay using Bradford detection (Aβ fibril formation); conditions: roughly 1:10 peptide:compound, overnight at room temperature, 10 mM phosphate buffer pH 7
T3 construct: Stock solution of Aβ42 or Aβ40 peptide at 5 mg/ml in distilled water, pH 7; made in house; host or cells: chemical synthesis (FMOC), HPLC purified
T3 sequence (P05067 672-713 limits assumed): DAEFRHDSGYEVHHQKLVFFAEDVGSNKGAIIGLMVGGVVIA
Experimental: Alternatively, peptides can also be obtained from a number of commercial sources (e.g., BaChem and Peninsula Laboratories, California). The assay was conducted as follows. Stock solution of Aβ42 or Aβ40 peptide at 5 mg/ml in distilled water, pH 7, and stock solutions of each test compound at 2 mg/ml in distilled water, pH 7 were prepared. • 1. Mix 5 μl (25 μg) of stock Aβ and 12.5 μl (25 μg) of stock test compounds into 1000 μl of 10 mM phosphate buffer, pH 7. This provides a molar ratio of roughly 1:10 [ peptide:compound] assuming a general molecular weight of 400 daltons for the test compounds. Control samples were prepared for both peptide and compound. These contained Aβ only using both 25 μg (5 μl stock Aβ) and 50 μg ([…]) to provide a standard curve for each run. Test compound controls contained 25 μg of material (12.5 μl of stock). All samples were mixed in 1000 μl of 10 mM phosphate buffer, pH 7 to final volume of 1017.5 μl. • 2. Incubate all samples overnight at room temperature without mixing. • 3. Spin at 14,000 rpm for 10 min in table top Eppendorf microfuge. • 4. Take 800 μl of supernatant. • 5. Add 200 μl of Bradford reagent (purchased from BioRad). • 6. Mix well by vortexing. • 7. Read at OD595 nm.

Aβ42 peptide = molecular target: T4, Aβ42 peptide (Homo sapiens, UniProt P05067); test: ELISA solubility assay (Aβ fibril formation); conditions: 1:10 peptide:compound, overnight at room temperature, 10 mM phosphate buffer
T4 construct: Stock solution of Aβ42 or Aβ40 peptide at 5 mg/ml in distilled water, pH 7; made in house; host or cells: chemical synthesis (FMOC), HPLC purified
T4 sequence (P05067 672-713 limits assumed): as above
Experimental: The assay was conducted as follows. Stock solution of Aβ42 peptide at 5 mg/ml in distilled water, pH 7, and stock solutions of each test compound at 1 mg/ml in distilled water, pH 7 were prepared. • 1. A 10 μg sample of peptide was mixed with compound at a molar ratio of 1:10 [ peptide:compound] in 500 μl of 10 mM phosphate buffer. Control samples contained peptide only. • 2. The mixture was incubated overnight at room temperature without agitation. • 3. The incubated mixture was centrifuged at 14,000 rpm (Eppendorf microfuge) for 5 minutes to separate the soluble peptide. • 4. 400 μl aliquots of supernatant were removed for ELISA assay.
ELISA • 1. 100 μl of prepared samples were coated in 96 wells NUNC microplates (each sample tested in triplicate) • 2. The plate was incubated at 37° C. for 3 hours, then at 4° C. overnight. • 3. The wells were washed twice with 0.05% Tween 20 in phosphate buffered saline. • 4. 250 μl of 3% skim milk powder in PBS was used to block non-specific binding to the wells (at 37° C. for 1.5 hours) • 5. The wells were washed with 0.05% Tween 20/PBS twice. • 6. A 100 μl aliquot of diluted (final dilution 1:100 in PBS) mouse monoclonal anti-Aβ antibody (purchased from DAKO recognizing the N-terminal residues 1-10) was added to each well. The antibody was then incubated at 37 C for 2 Hours. • 7. The wells were washed with 0.05% Tween 20/PBS six times (5 min/wash). • 8. Visualization was performed using 100 μl of diluted goat anti-mouse IgG (H^+ L) conjugated with alkaline phosphatase (purchased from BioRad) was added to each well. The plate was incubated at 37° C. for 1 hour. • 9. The wells were washed with 0.05% Tween 20/PBS six times (5 min/wash). • 10. The color reaction was developed using 100 μl of alkaline phosphatase substrate (purchased from BioRad) which was added to each well. • 11. The relative amounts of Aβ were obtained by measuring the OD of the sample at 405 nm using a standard ELISA plate reader.
Compounds were characterized as “active” if 40-50% of Aβ42 remained in the supernatant.

- relative inhibition compared to Aβ alone, incubation time 0 h (Aβ(1-40)): — (No effect compared to Aβ alone)
- relative inhibition compared to Aβ alone, incubation time 19 h (Aβ(1-40)): +++ (+++: 50-75%)
- relative inhibition compared to Aβ alone, incubation time 43 h (Aβ(1-40)): ++ (++: 25-50%)
- Activity (preventing or inhibiting IAPP fibril formation) (IAPP): Active
Compound: CC(CCCO)NCCCS(=O)(=O)O (stereo not drawn) [XXXVIII, 3-[(dl)-5-hydroxy-2-pentyl]amino-1-propanesulfonic acid]

- Aβ42 remaining in the supernatant (activity class) (Aβ42): Very active
Compound: COc1cc(-c2ccc(N=Nc3ccc4c(S(=O)(=O)[O-])cc(S(=O)(=O)[O-])c(N)c4c3O)c(OC)c2)ccc1N=Nc1ccc2c(S(=O)(=O)[O-])cc(S(=O)(=O)[O-])c(N)c2c1O.[Na+].[Na+].[Na+].[Na+] [XXIX, Chicago Sky Blue 6B]

- Activity (preventing or inhibiting IAPP fibril formation) (IAPP): Active
Compound: O=S(=O)(O)CCCNC1(CO)CCCC1 [XLII, 3-(1-hydroxymethyl-1-cyclopentyl)amino-1-propanesulfonic acid]

Compound: CC12CC3CC(C)(C1)CC(NCCCS(=O)(=O)O)(C3)C2 [XXIV, 3-[(−3,5-dimethyl-1-adamantyl)-amino]-1-propanesulfonic acid]
- Aβ42 remaining in the supernatant (activity class) (Aβ42 peptide): Active

Compound: C=CC(=O)NC(C)(C)CS(=O)(=O)O [XXI, 2-acrylamido-2-methyl-1-propanesulfonic acid]
- Aβ42 remaining in the supernatant (activity class) (Aβ42 peptide): Active

Compound: Cc1ccc2nc(-c3ccc(N=NNc4ccc(-c5nc6ccc(C)c(S(=O)(=O)[O-])c6s5)cc4)cc3)sc2c1S(=O)(=O)[O-].[Na+].[Na+] [XXVIII, Thiazol Yellow G]
- Aβ42 remaining in the supernatant (activity class) (Aβ42 peptide): Active

- Aβ42 remaining in the supernatant (activity class) (Aβ42): Active
- relative inhibition compared to Aβ alone, incubation time 0 h (Aβ(1-40)): —^1, 2 (No effect compared to Aβ alone)
- relative inhibition compared to Aβ alone, incubation time 19 h (Aβ(1-40)): + (+: 0-25%)
- relative inhibition compared to Aβ alone, incubation time 43 h (Aβ(1-40)): ++ (++: 25-50%)
Compound: O=S(=O)(O)CCCN1CCc2ccccc2C1 [XVII, 3-[2-(1,2,3,4-tetrahydroisoquinolinyl)]-1-propanesulfonic acid]
